≈ marks a conversion by molar mass, not a printed value. Where two headings read alike, the source gives them in different places.
Columns and labels:
E. coli biofilm = E. coli biofilm assay (activity tables); assay type: cell-based, Escherichia coli; details: biofilm
Description: A quantitative biofilm assay was used to determine the effect of NTZ on biofilm formation (41). Strain 042 was grown overnight at 37° C. with shaking and inoculated 1:100 in 200 μl culture medium in Costar 96-well, flat-bottom, polystyrene microtiter plates containing appropriate concentrations of NTZ. Plates were incubated statically at 37° C. in a humidified incubator. At 24 h, bacterial growth was measured by either transferring […] aliquots to another microtiter plate to determine turbidity or by diluting 100 μl aliquots 1:100 in 9.9 ml PBS for quantitative plate counts on LB medium. Bacterial counts in triplicate are reported as cfu/ml. Biofilm was visualized following staining with 0.5% crystal violet (41) and the absorbance was read at 570 nm using a microplate reader (Molecular Dynamics). All experiments were in triplicate and reported as mean and standard deviation.
(§1) A standard broth dilution protocol was used in 96 well microplates containing a standard dilution of the microorganism to be tested in 100 microliters of the appropriate medium. Appropriate medium: E. coli, LB medium; Staphylococcus strains, Trypticase Soy; and for H. pylori and C. jejuni, Brain Heart Infusion. The compounds to be tested were set at 32 μg/ml in 200 microliters in well one and then serially diluted to provide a range from 32 to 0.06. The wells were scored visually at 24 h. The well where there was no growth was recorded as the MIC. Clostridium difficile was tested by agar diffusion and disk diffusion (Kirby Bower) methods under anaerobic conditions on Wilkins Chalgrin agar. In these assays, zone of inhibited growth was measured and compared by relative ratio to the zone recorded for NTZ.
(§2) Representative compounds of the invention were tested in a series of assays against a series of organisms as described above. […] The organisms tested include, C. difficile, H. pylori, C. jejuni, MRSA, S. epidermidis, and E. coli. S. epidermidis and E. coli were tested in the plank and biofilm assay. A disk diffusion assay was also used for C. difficile. Direct PFOR enzyme assays were also performed. All analogues and derivatives were not tested on every organism in every type of assay (the “-” in each table means that it was not tested).

E. coli = assay: MIC testing by broth dilution, E. coli plank; assay type: cell-based, Escherichia coli
Summary of the method: (§3)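 Twofold broth microdilution from 32 μg/ml down to 0.06, in LB for E. coli, Trypticase Soy for S. epidermidis (planktonic) and Brain Heart Infusion for C. jejuni. C. difficile: anaerobic disk diffusion on Wilkins Chalgrin agar, inhibition zone expressed as a ratio to the NTZ zone.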

MRSA = assay: MIC testing by broth dilution, MRSA; assay type: cell-based, Staphylococcus aureus
Summary of the method: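 Values are broth-dilution MICs, defined as the well showing no growth on visual reading after 24 h; the tested range was 32 to 0.06 μg/ml, in organism-specific media (LB, Trypticase Soy, Brain Heart Infusion). The C. difficile entries come instead from anaerobic Kirby-Bauer disk zones, normalised to NTZ.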

C. difficile = assay: Disk diffusion (Kirby Bower), C. difficile; assay type: cell-based, Clostridium difficile; details: zone of inhibited growth as relative ratio to the zone for NTZ
Description: as §1, §2

C. jejuni = assay: MIC testing by broth dilution, C. jejuni; assay type: cell-based, Campylobacter jejuni
Summary of the method: as §3

H. pylori = assay: MIC testing by broth dilution, H. pylori; assay type: cell-based, Helicobacter pylori
Summary of the method: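 Broth dilution MIC determination against H. pylori: a standard inoculum in 100 microliters of Brain Heart Infusion medium was placed in 96 well microplates. Test compounds began at 32 μg/ml in 200 microliters in well one and were serially diluted over a 32 to 0.06 range. After 24 h, plates were scored by eye and the first well without growth was recorded as the MIC.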

S. epidermidis = assay: MIC testing by broth dilution, S. epidermidis plank; assay type: cell-based, Staphylococcus epidermidis
Summary of the method: as §3

S. epidermidis biofilm = S. epidermidis biofilm assay (activity tables); assay type: cell-based, Staphylococcus epidermidis; details: for MIC S. epidermidis Biofilm: Furan analogues table
Description: Staphylococcal strains were cultured overnight in TSB at 37° C. with shaking, diluted in fresh medium to an OD600 of 0.01 and 200 W was dispensed into sterile flat bottom polystyrene 96 well microtiter plates (Costar 3596, Corning Inc.). […] Each compound and dilution was tested in triplicate. The plates were incubated overnight at 37° C. in a humidified incubator, without shaking and both growth and biofilm accumulation were determined at 16 h.
Following recording of turbidities, the culture medium was aspirated and the wells were washed three times with distilled water, blotted on paper towels, and fixed with 75% ethanol for 10 minutes.
To visualize biofilm material, 0.5% crystal violet was added to each well and after 5 minutes was removed and the wells washed three times with distilled water. Plates were read using a microplate reader at a wavelength of 570 nm. The dye was then extracted by adding 200 W of 95% ethanol, and the absorbance was read again at 570 nm. All assays were performed in triplicate and the mean and standard deviation determined. […]
as §2

[1] = read-out: MIC (μM) E. coli Biofilm
[2] = broth dilution, LB medium, 24 h, read-out: MIC (μM) E. coli Plank
[3] = broth dilution, Trypticase Soy, 24 h, read-out: MIC (μM) MRSA
[4] = broth dilution, Brain Heart Infusion, 24 h, read-out: MIC (μM) C. jejuni
[5] = broth dilution, Brain Heart Infusion, 24 h, read-out: MIC (μM) H. pylori
[6] = broth dilution, Trypticase Soy, 24 h, read-out: MIC (μM) S. epidermidis Plank
[7] = Furan analogues table, read-out: MIC E. coli Biofilm
[8] = planktonic, Furan analogues table, read-out: MIC E. coli Plank
[9] = Furan analogues table, read-out: MIC MRSA
[10] = Furan analogues table, read-out: MIC C. jejuni
[11] = Furan analogues table, read-out: MIC H. pylori
[12] = planktonic, Furan analogues table, read-out: MIC S. epidermidis Plank

Row | MIC (E. coli biofilm; [7]) [µM] | MIC (E. coli; [8]) [µM] | MIC (MRSA; [9]) [µM] | MIC (C. jejuni; [10]) [µM] | MIC (H. pylori; [11]) [µM] | MIC (S. epidermidis; [12]) [µM] | MIC S. epidermidis Biofilm (S. epidermidis biofilm) [µM] | SMILES | MIC (E. coli biofilm; [1]) [µM] | MIC (E. coli; [2]) [µM] | MIC (MRSA; [3]) [µM] | Disk Diffusion (%) C. difficile (C. difficile) [%] | MIC (C. jejuni; [4]) [µM] | MIC (H. pylori; [5]) [µM] | MIC (S. epidermidis; [6]) [µM] | MIC (μM) S. epidermidis Biofilm (S. epidermidis biofilm) [µM]
1 |  |  |  |  |  |  |  | CCCCCCCC(=O)Nc1ncc([N+](=O)[O-])s1 [VPC16b1046] | 88.4 (≈ 24 µg/mL) | 117.9 (≈ 32 µg/mL) | 59.0 (≈ 16 µg/mL) | 54 ± 4 | 106.9 (≈ 29 µg/mL) | 0.8 (≈ 0.217 µg/mL) | 11.1 (≈ 3.01 µg/mL) | 7.4 (≈ 2.01 µg/mL)
2 |  |  |  |  |  |  |  | O=C(Nc1ncc([N+](=O)[O-])s1)c1cccnc1 [VPC161176] | 127.9 (≈ 32 µg/mL) | 127.9 (≈ 32 µg/mL) | 127.9 (≈ 32 µg/mL) |  | 71.9 (≈ 18 µg/mL) | 4.0 (≈ 1 µg/mL) | 127.9 (≈ 32 µg/mL) | 63.9 (≈ 16 µg/mL)
3 |  |  |  |  |  |  |  | O=C(Nc1ncc([N+](=O)[O-])s1)c1ccncc1 [VPC161177] | 127.9 (≈ 32 µg/mL) | 127.9 (≈ 32 µg/mL) | 127.9 (≈ 32 µg/mL) |  | 24.0 (≈ 6.01 µg/mL) | 16.0 (≈ 4 µg/mL) | 127.9 (≈ 32 µg/mL) | 127.9 (≈ 32 µg/mL)
4 |  |  |  |  |  |  |  | O=C(Nc1ncc([N+](=O)[O-])s1)c1ccccc1C(F)(F)F [VPC161182] | 100.9 (≈ 32 µg/mL) | 100.9 (≈ 32 µg/mL) | 25.2 (≈ 7.99 µg/mL) |  | 18.9 (≈ 6 µg/mL) | 1.6 (≈ 0.508 µg/mL) | 25.2 (≈ 7.99 µg/mL) | 50.4 (≈ 16 µg/mL)
5 | 88.8 (≈ 32 µg/mL) | 88.8 (≈ 32 µg/mL) | 88.8 (≈ 32 µg/mL) | 16.7 (≈ 6.02 µg/mL) | 6.9 (≈ 2.49 µg/mL) | 11.1 (≈ 4 µg/mL) | 11.1 (≈ 4 µg/mL) | O=C(Nc1ncc([N+](=O)[O-])s1)c1ccc(-c2ccc([N+](=O)[O-])cc2)o1 [VPC161189] |  |  |  |  |  |  |  | 
6 | 88.8 (≈ 32 µg/mL) | 88.8 (≈ 32 µg/mL) | 44.4 (≈ 16 µg/mL) | 16.7 (≈ 6.02 µg/mL) | 6.9 (≈ 2.49 µg/mL) | 11.1 (≈ 4 µg/mL) | 11.1 (≈ 4 µg/mL) | O=C(Nc1ncc([N+](=O)[O-])s1)c1ccc(-c2cccc([N+](=O)[O-])c2)o1 [VPC161190] |  |  |  |  |  |  |  | 
7 |  |  |  |  |  |  |  | COc1ccccc1C(=O)Nc1ncc([N+](=O)[O-])s1 [VPC161192] | 57.3 (≈ 16 µg/mL) | 114.6 (≈ 32 µg/mL) | 114.6 (≈ 32 µg/mL) |  | 17.9 (≈ 5 µg/mL) | 1.8 (≈ 0.503 µg/mL) | 114.6 (≈ 32 µg/mL) | 114.6 (≈ 32 µg/mL)

Source: US8835644B2, “Broad spectrum benzothiophene-nitrothiazolide and other antimicrobials” (University of Virginia Patent Foundation, priority 2009, dated 2014)
